From US9724262B2, “Methods of diagnosing and treating neonatal reversion to fetal consciousness” (The Regents of the University of California, priority 2013, dated 2017)

Columns and labels:
[1] = Plasma steroid and hormone concentrations (LC-MS) in the foal infused with allopregnanolone; format: in vivo, Quarter Horse
Protocol: (§1) Intravenous catheters were placed aseptically in the right jugular vein for sample collection and in the left jugular vein for infusion of allopregnanolone. Allopregnanolone (5 alpha-pregnan-3 alpha-ol-20-one; Steraloids Inc., Newport, R.I., USA) was dissolved in an ethanol-based solution to a total concentration of 9 mg/ml. Infused dose and concentration of allopregnanolone in this foal were determined based on concentrations reported in in vivo studies in the modulation of the HPA axis in male rats (Naert, et al., (2007) Psychoneuroendocrinology 32, 1062-1078). An initial bolus of 0.05 mg/kg bwt i.v. of allopregnanolone was given followed by a constant rate infusion (CRI) of 0.02 mg/kg bwt/min using an infusion pump. Based on clinical effects of the initial dosage, a second bolus of 0.1 mg/kg bwt i.v. was given after 5 min and followed by a CRI of 0.04 mg/kg bwt/min for 5 min. The infusion was discontinued for 30 min to allow observation of any neurobehavioural (NB) alterations, and then a final bolus of 0.2 mg/kg bwt i.v. was given.
Heparinised blood samples were collected at birth, age 6 h and at 15 min intervals during the infusion. Blood was immediately centrifuged following collection and plasma stored at −80° C. until analysed by liquid chromatography mass spectrometry (LC-MS) utilising on-line sample extraction by turbulent flow chromatography (TFC) and detection by select reaction monitoring (SRM) on a triple quadrupole mass spectrometer. […] Free concentrations of 34 steroids were monitored in one analytical method over a 24-min run time. Detection and quantitation was accomplished using 3 or more SRM transitions per compound for all compounds other than 17-hydroxy pregnenolone where single ion monitoring (SIM) was utilised. This method was validated and the following assessed for each analyte: linearity, limit of detection, limit of quantitation, accuracy, precision, matrix effects, extraction recovery and potential endogenous interferences. […]

healthy neonatal foal = assay: Neurobehavioural (NB) scoring of a healthy neonatal foal infused i.v. with allopregnanolone; format: in vivo, Quarter Horse
Protocol: A healthy neonatal 50 kg Quarter Horse colt from the research herd at the School of Veterinary Medicine, University of California, Davis was selected for the infusion. The foal was born from a healthy Quarter Horse mare with a normal gestational length without complications, and normal observed parturition except that the placental passage was prolonged. Although retention of the placenta for 7 h post birth is not considered normal by most standards, the placenta was evaluated and determined to be complete and normal. […] The foal was deemed healthy based upon complete physical and neurological examinations immediately post birth. […] Repeat physical and neurological examinations at age 6 h, immediately prior to infusion, were also normal.
as §1
Neurobehavioural alterations were recorded and graded through a NB scoring system developed by the authors for the assessment of foals with NMS (Table 2). From preliminary work, foals with NMS had scores>8 from a range of 0 (normal foal) to 20 (comatose with paroxysmal activity). Mentation was defined as: normal if the foal was alert and responsive; quiet to obtunded if the foal was apparently lethargic but responsive to external stimuli (e.g., touch, sound); stuporous if level of consciousness was decreased but responsive to painful stimuli (e.g. pinching skin with haemostats); and comatose if the foal lost consciousness and was unresponsive to any stimuli. Paroxysmal activity was defined as abnormal events such as seizures or seizure-like activity, rhythmic limb movements, tremors or paddling. The NB scores were calculated at 5 min intervals throughout the infusion period. Following the infusion, the foal was observed hourly for the first 6 h and then at 12 h intervals for 2 days.
For NB comparison, a second age-matched clinically healthy neonatal Quarter Horse colt was infused with 99.9% ethanol diluted with 0.9% saline to a final concentration of 5% ethanol without allopregnanolone. Infusion of this solution followed the same protocol (dosage [based on 5% ethanol] and rate) of administration as for the first foal. The study was approved by an Animal Care and Use protocol from University of California, Davis.

[2] = age 6 ½ h, 15 minutes post initial infusion

CC(=O)[C@H]1CC[C@H]2[C@@H]3CC[C@H]4C[C@H](O)CC[C@]4(C)[C@H]3CC[C@]12C [allopregnanolone, 5 alpha-pregnan-3 alpha-ol-20-one]
Allopregnanolone plasma concentration ([1]; age 6 ¼ h, bolus 0.05 mg/kg IV, CRI 0.02 mg/kg/min): 478,909 pg/mL
Allopregnanolone plasma concentration [1, 2]: 126,566 pg/mL
Allopregnanolone plasma concentration ([1]; age 6 ¾ h, bolus 0.2 mg/kg IV): 466,208 pg/mL
Time after cessation of the infusion to signs of increased responsiveness (healthy neonatal foal; after cessation of the infusion): ≤ 8 min
Neurobehavior score (healthy neonatal foal; age 6 ¼ h, bolus 0.05 mg/kg IV, CRI 0.02 mg/kg/min, score scale 0-20): 14
Neurobehavior score (healthy neonatal foal; [2]): 8
Neurobehavior score (healthy neonatal foal; age 6 ¾ h, bolus 0.2 mg/kg IV): 15
NB score (healthy neonatal foal; by 15 min after cessation of the infusion or the final bolus, standing, mild obtundation): 9
NB score (healthy neonatal foal; by 30 min after infusion, foal appeared normal): 0
NB score (healthy neonatal foal; infusion of higher concentrations (0.1 and 0.2 mg/kg bwt), foal recumbent, stuporous, unresponsive): 16
Long-term NB effects following the infusion (healthy neonatal foal; observed hourly for 6 h, then at 12 h intervals for 2 days): No long-term NB effects were observed
